Data on 15 sequences can be found in PMC7753147, “High-throughput determination of protein affinities using unmodified peptide libraries in nanomolar scale” (iScience, 2020).

The subject of one test is gephE. The test is described as follows: µSPOT peptide microarray binding assay with recombinant gephE.
Another test concerns native geph. The test is described as follows: µSPOT peptide microarray binding assay with native geph from mouse brain lysate.
The next test has as its system FL-geph. The test is described as follows: µSPOT peptide microarray binding assay with full-length geph.
Setting [1] is: µSPOT peptide microarray, GlyRβ full positional scan, recombinant gephE, intensity normalised to wild-type sequence DLRSNDFSIVGSLPR (=1).
The mark [2] stands for this setting: µSPOT peptide microarray, GlyRβ full positional scan, native geph from mouse brain lysate, intensity normalised to wild-type sequence DLRSNDFSIVGSLPR (=1).
The mark [3] stands for this setting: µSPOT peptide microarray, GlyRβ full positional scan, intensity normalised to wild-type sequence DLRSNDFSIVGSLPR (=1).
Setting [4] is: µSPOT full positional scan of GlyRβ 15-mer DLRSNDFSIVGSLPR, intensity normalised to wild-type sequence (= 1).
The mark [5] stands for this setting: µSPOT full positional scan of GlyRβ 15-mer DLRSNDFSIVGSLPR, native geph, intensity normalised to wild-type sequence (= 1).

Consider “DLRSNDDSIVGSLPR [GlyRβ_Full_Positional_Scan_130, GlyR β 414-428 variant F420D]”, for which, in the test on gephE (setting [1]), the “gephE Binding Intensity [norm.]” value was determined as 0.45 norm. For the same sequence, in the test with native geph (setting [2]), the “Native geph Binding Intensity [norm.]” value worked out at 0.26 norm. In addition, in the test with FL-geph (setting [3]), the “Fl-geph Binding Intensity [norm.]” value was 0.38 norm.
Regarding “DLRSNDFSIVGSQPR [GlyRβ_Full_Positional_Scan_260]”, the “gephE Binding Intensity [norm.]” value in the test on gephE (setting [4]) is 0.76 norm. Moreover, in the test on native geph (setting [5]), the “Native geph Binding Intensity [norm.]” value stood at 0.8 norm. For the same sequence, the “Fl-geph Binding Intensity [norm.]” value in the test with FL-geph (setting [4]) is given as 0.97 norm.
As for “DKRSNDFSIVGSLPR [GlyRβ_Full_Positional_Scan_034]”, the “gephE Binding Intensity [norm.]” value with gephE (setting [1]) came to 0.88 norm. Besides, the “Native geph Binding Intensity [norm.]” value in the test on native geph (setting [2]) came out at 0.53 norm. Besides, the “Fl-geph Binding Intensity [norm.]” value in the test on FL-geph (setting [3]) is listed as 0.94 norm.
In the case of “DLRSHDFSIVGSLPR [GlyRβ_Full_Positional_Scan_093]”, in the test on gephE (setting [1]), the “gephE Binding Intensity [norm.]” value stood at 0.9 norm. For the same sequence, the “Native geph Binding Intensity [norm.]” value in the test with native geph (setting [2]) is 0.72 norm. For the same sequence, the “Fl-geph Binding Intensity [norm.]” value in the test with FL-geph (setting [3]) is listed as 0.75 norm.
“DARSNDFSIVGSLPR [GlyRβ_Full_Positional_Scan_021]”: in the test on gephE (setting [1]), the “gephE Binding Intensity [norm.]” value is recorded as 1.01 norm. The “Native geph Binding Intensity [norm.]” value in the test with native geph (setting [2]) came out at 0.95 norm. Also, the “Fl-geph Binding Intensity [norm.]” value in the test on FL-geph (setting [3]) worked out at 1.04 norm.
As for “DLRSNDFSIVGSLHR [GlyRβ_Full_Positional_Scan_273]”, the “gephE Binding Intensity [norm.]” value with gephE (setting [4]) stood at 0.62 norm. In addition, the “Native geph Binding Intensity [norm.]” value in the test with native geph (setting [5]) amounted to 0.55 norm. The “Fl-geph Binding Intensity [norm.]” value in the test on FL-geph (setting [4]) came to 1.08 norm.
On the same counts, the results for “DLRSNDFSIVGYLPR [GlyRβ_Full_Positional_Scan_229]” are 0.53 norm, 0.31 norm and 0.59 norm.
Take “DLRSNPFSIVGSLPR [GlyRβ_Full_Positional_Scan_105]”: in the test with gephE (setting [1]), the “gephE Binding Intensity [norm.]” value worked out at 0.89 norm. For the same sequence, the “Native geph Binding Intensity [norm.]” value in the test with native geph (setting [2]) came to 0.58 norm. In the test on FL-geph (setting [3]), the “Fl-geph Binding Intensity [norm.]” value is listed as 0.85 norm.
On to “DLRSNDFSIVGQLPR [GlyRβ_Full_Positional_Scan_240]”, for which the “gephE Binding Intensity [norm.]” value in the test on gephE (setting [4]) came out at 0.84 norm. Moreover, the “Native geph Binding Intensity [norm.]” value with native geph (setting [5]) was 1.4 norm. For the same sequence, the “Fl-geph Binding Intensity [norm.]” value in the test on FL-geph (setting [4]) is reported as 1.12 norm.
As to “DLYSNDFSIVGSLPR [GlyRβ_Full_Positional_Scan_049]”, in the test with gephE (setting [1]), the “gephE Binding Intensity [norm.]” value stood at 0.96 norm. The “Native geph Binding Intensity [norm.]” value in the test with native geph (setting [2]) is 1.37 norm. Also, the “Fl-geph Binding Intensity [norm.]” value in the test on FL-geph (setting [3]) came out at 1.03 norm.
With “DLRSNDFSIVGSLAR [GlyRβ_Full_Positional_Scan_261]”, the “gephE Binding Intensity [norm.]” value in the test on gephE (setting [4]) stood at 0.67 norm. Moreover, the “Native geph Binding Intensity [norm.]” value in the test on native geph (setting [5]) is reported as 0.63 norm. Further, the “Fl-geph Binding Intensity [norm.]” value in the test with FL-geph (setting [4]) is listed as 0.99 norm.
As to “DLRSNDFSIKGSLPR [GlyRβ_Full_Positional_Scan_194, GlyR β 414-428 variant V423K]”, the “gephE Binding Intensity [norm.]” value in the test on gephE (setting [1]) turned out to be 0.5 norm. Further, the “Native geph Binding Intensity [norm.]” value in the test on native geph (setting [2]) was determined as 0.16 norm. In addition, in the test on FL-geph (setting [3]), the “Fl-geph Binding Intensity [norm.]” value is reported as 0.63 norm.
On the same counts, the results for “DLRSNDFFIVGSLPR [GlyRβ_Full_Positional_Scan_147, GlyR β 414-428 variant S421F]” are 0.53 norm, 0.18 norm and 0.64 norm.
On the same counts, the results for “DLRSNDFSIVGSLPR [GlyRβ_Full_Positional_Scan_099]” are 1 norm, 1 norm and 1 norm.
On the same counts, the results for “DERSNDFSIVGSLPR [GlyRβ_Full_Positional_Scan_031]” are 0.98 norm, 0.92 norm and 1.01 norm.
